Reference: patent publication US9943592B2, “Vaccine adjuvants from self-assembling peptides” (priority 2011, dated 2018)
Square brackets hold non-standard residues; d marks the D form. Ends that are not written are not given here.

Experiments:
PRRSV [1] = assay: dynamic viremia after vaccination in pigs; conditions: pig, in vivo
Description: (§1) A stock solution of h9e peptide (concentration 1.75% by weight in water) was prepared. For the active agent, 2X Ingelvac PRRS MLV (Boehringer Ingelheim Vetmedica, St. Joseph, Mo.) was used. The vaccine was rehydrated by adding half of the contents of the accompanying liquid diluent to the vial containing the virus. Medium was then prepared by adding 0.3 ml bovine serum to 7.2 ml MEM medium (ion source). Next, 5 ml of the peptide stock solution was added to the medium and mixed well. This was then mixed with the vaccine solution. The final concentration of h9e as adjuvant was 0.35% by weight, and the final concentration of serum was […] by weight.
(§2) Vaccines were also prepared using a commercially-available adjuvant, Montanide™ Gel 01 (aqueous polymeric gel veterinary adjuvant, Seppic Inc., Fairfield, N.J.), or a published peptide hydrogel, designated herein as A1/2 (SEQ ID NO:28, corresponding to the N-terminal region of mineral directing gelator (MDG) 1; Gungormus, et al., Biomaterials 31 (2010) 7266-7274).
(§3) 55 PRRSV serum negative pigs were initially divided into 5 vaccination groups and vaccinated on Day 0. […]
(§4) At Day 0, all pigs were weighed, and weight was monitored weekly and recorded on Days 7, 14, 21, and 28. […] Body temperature and clinical signs were monitored daily and recorded. […]

PRRSV [2] = assay: dynamic viremia after challenge in pigs; assay type: in vivo; conditions: challenge with VR2332 or MN184a on day 28
Description: as §1, §2, §3, §4

PRRSV [3] = assay: IDEXX ELISA Ab titer in pigs; assay type: in vivo
Description: as §1, §2, §3, §4

[4] = solubility, stability and morphology of peptide and hydrogel; assay type: physicochemical; conditions: for solubility of peptide in water: until pH adjusted to neutral or basic
[5] = rheology of peptide hydrogels (storage modulus G', amplitude sweep, temperature profile); assay type: physicochemical
Description: (§5) The synthesized peptide was dissolved in DI water to a concentration of 5 mM by adjusting the pH to 8.0-10.0 with 1 M NaOH (Sigma). The h5e acidic solution and acidic h9e hydrogel were made by adjusting the pH to 4.0 with 1 M HCl (Sigma). The h9e Ca^2+ hydrogel was prepared by adding CaCl2 to a basic h9e peptide solution (molar ratio of peptide and Ca^2+ was 1:10, final pH was 7.0 to 9.0). The same method was used to prepare the h5e Ca^2+ solution.
The storage, G′, and loss, G″, moduli of h9e acidic and Ca^2+ hydrogels were determined on a rheometer system C-VOR 150 (Malvern instruments, Malvern, Worcestershire WR141XZ, United Kingdom) with a 20-mm diameter parallel plate geometry through frequency sweep (strain 1%, frequency 0.01 to 10 Hz, temperature 25° C.), amplitude sweep (strain 1 to 500%, frequency 1 Hz, temperature 25° C.), and temperature profile (strain 1%, frequency 1 Hz, Temperature 5° C., 20° C., 37° C., 50° C., 75° C., and 90° C.) measurements. The multiple amplitude sweep experiments were conducted to test the moduli recovery of peptide hydrogels. The time gap between every two tests was 10, 30, and 60 seconds for h9e Ca^2+ hydrogel.

[6] = hydrogel formation of peptide solutions (ion or pH trigger); assay type: physicochemical; conditions: 0.005M peptide concentration
Description: as §5

With “A1/2: published peptide hydrogel, N-terminal region of mineral directing gelator (MDG) 1 (VKVKVKVKVPPTKVEVKVKV; Derivative of N-terminal region of mineral directing gelator (MDG) 1)” the “viremia after vaccination compared to the MLV group” value (PRRSV [1]) was “no difference”, the viremia after challenge (PRRSV [2]) was “not” and the “ELISA Ab titer after vaccination, compared among groups” value (PRRSV [3]) was “lowest”.

In the case of FLIVIGPGGDGPGGD [h5e, FLIVIGPGGDGPGGD], the “solubility of peptide in water” value [4] is reported as “insoluble in water”.

In the case of “FLIVIGSIIGPGGDGPGGD [h9e, FLIVIGSIIGPGGDGPGGD]”, the “temperature stability of hydrogel” value [4] is reported as “up to 90 °C”, the “water solubility of hydrogel” value [4] is reported as “water soluble” and the “solubility of peptide in water” value [4] is reported as “insoluble in water”. The “general health / biological safety” value (immunized mice until sera collection) was “biologically safe” and the “injection site reaction (redness or swelling)” value (vaccinated mice) was “No injection site reaction”.

With “FLIVIGSIIKKKKKKKKKK (Synthetic peptide adjuvant) [h9e variant with eD2 region replaced by K10]” the “G' of hydrogel in basic pH” value [5] was 55.0 ± 0.9 Pa.

In the case of “GPGGDGPGGD (Hydrophilic region derived from spider flagelliform silk protein) [eD2]”, the “hydrogel formation in Ca^2+ solution” value [6] is reported as “not able to form hydrogels”.

With “L5GSIIK10: L5K10 diblock peptide with GSII inserted (LLLLLGSIIKKKKKKKKKK)” the “hydrogel formation in Ca^2+ solution” value [6] was “no hydrogel formation was observed”.

With “L5PP^DK10: L5K10 diblock peptide with sharp turning segment PP^D inserted (LLLLLP[dP]KKKKKKKKKK)” the “hydrogel formation in Ca^2+ solution” value [6] was “no hydrogel formation was observed”.

For “LLLLLKKKKKKKKKK (Synthetic diblock peptide) [L5K10]”, the “hydrogel formation in Ca^2+ solution” value [6] was “no hydrogel formation was observed”.
